From patent US6440903B1, “Substituted 2,4-diamino-1,3,5-triazines as herbicides” (Bayer Aktiengesellschaft, priority 1996, dated 2002)

Legend:
Setaria [1] = assay: Post-emergence test; assay type: in vivo; settings: Setaria, 504 h, greenhouse, 500 g of ai./ha, scored after three weeks, read-out: % damage, Setaria
Protocol: (§1) Post-emergence Test Solvent: 5 parts by weight of acetone Emulsifier: 1 part by weight of alkylaryl polyglycol ether To produce a suitable preparation of active compound, 1 part by weight of active compound is mixed with the stated amount of solvent, the stated amount of emulsifier is added and the concentrate is diluted with water to the desired concentration. Test plants which have a height of 5-15 cm are sprayed with the preparation of active compound such that the particular amounts of active compounds desired are applied per unit area. The concentration of the spray liquor is chosen so that the particular amounts of active compound desired are applied in 1000 l of water/ha. After three weeks, the degree of damage to the plants is scored visually in % damage in comparison to the untreated control. The Figures Denote: 0%=no effect (like untreated control) 100%=total destruction

Galium = assay: Post-emergence test; assay type: in vivo; settings: greenhouse, 500 g of ai./ha, scored after three weeks
Protocol: as §1

Amaranthus [2] = assay: Post-emergence test; assay type: in vivo; settings: Amaranthus, 504 h, greenhouse, 500 g of ai./ha, scored after three weeks, read-out: % damage, Amaranthus
Protocol: as §1

weeds = assay: Pre-emergence test (summary in text); assay type: in vivo; settings: result in words
Protocol: Solvent: 5 parts by weight of acetone
Emulsifier: 1 part by weight of alkylaryl polyglycol ether
To produce a suitable preparation of active compound, 1 part by weight of active compound is mixed with the stated amount of solvent, the stated amount of emulsifier is added and the concentrate is diluted with water to the desired concentration.
Seeds of the test plants are sown in normal soil. After about 24 hours, the soil is watered with the preparation of active compound. The amount of water per unit area is advantageously kept constant. The concentration of active compound in the preparation is immaterial, only the application rate of active compound per unit area matters.
After three weeks, the degree of damage to the plants is scored visually in % damage in comparison to the development of the untreated control.
0%=no effect (like untreated control)

Sinapis = assay: Pre-emergence test; assay type: in vivo; settings: greenhouse, 1000 g of ai./ha, scored after three weeks
Protocol: (§2) Pre-emergence Test Solvent: 5 parts by weight of acetone Emulsifier: 1 part by weight of alkylaryl polyglycol ether To produce a suitable preparation of active compound, 1 part by weight of active compound is mixed with the stated amount of solvent, the stated amount of emulsifier is added and the concentrate is diluted with water to the desired concentration. Seeds of the test plants are sown in normal soil. After about 24 hours, the soil is watered with the preparation of active compound. The amount of water per unit area is advantageously kept constant. The concentration of active compound in the preparation is immaterial, only the application rate of active compound per unit area matters. After three weeks, the degree of damage to the plants is scored visually in % damage in comparison to the development of the untreated control. The figures denote: 0%=no effect (like untreated control) 100%=total destruction

Maize = assay: Pre-emergence test; assay type: in vivo; settings: greenhouse, 1000 g of ai./ha, scored after three weeks
Protocol: as §2

Amaranthus [3] = assay: Pre-emergence test; assay type: in vivo; settings: greenhouse, scored after three weeks
Protocol: as §2

Abutilon = assay: Pre-emergence test; assay type: in vivo; settings: greenhouse, 1000 g of ai./ha, scored after three weeks
Protocol: as §2

Digitaria = assay: Pre-emergence test; assay type: in vivo; settings: greenhouse, scored after three weeks
Protocol: as §2

Cotton = assay: Pre-emergence test; assay type: in vivo; settings: greenhouse, scored after three weeks
Protocol: as §2

Wheat = assay: Pre-emergence test; assay type: in vivo; settings: greenhouse, scored after three weeks
Protocol: as §2

Polygonum = assay: Pre-emergence test; assay type: in vivo; settings: greenhouse, scored after three weeks
Protocol: as §2

Veronica = assay: Pre-emergence test; assay type: in vivo; settings: greenhouse, scored after three weeks
Protocol: as §2

Echinochloa = assay: Pre-emergence test; assay type: in vivo; settings: greenhouse, scored after three weeks
Protocol: as §2

Solanum = assay: Pre-emergence test; assay type: in vivo; settings: greenhouse, scored after three weeks
Protocol: as §2

Setaria [4] = assay: Pre-emergence test; assay type: in vivo; settings: greenhouse, scored after three weeks
Protocol: as §2

**Q.** What does the source list for `COSc1ccc(C(C)Nc2nc(NC(C)=O)nc(C(Cl)Cl)n2)cc1` (centres unmarked)?
**A.** pest or weed control at 500 g/ha (Setaria [1]): 90%; % damage, Galium (Galium): 100%; pest or weed control at 500 g/ha (Amaranthus [2]): 100%

**Q.** With `CC(=O)Nc1nc(NC(C)c2ccc(Cl)cc2)nc(C(C)(Cl)Cl)n1` (centres unmarked) [Example 160] as the compound, how does the activity against weeds (weeds) read?
**A.** strong activity

**Q.** What about the melting point of the same compound?
**A.** 118 °C

**Q.** For `CC(F)c1nc(N)nc(NC(C)c2ccc(Cl)cc2)n1` (centres unmarked) [drawing 94], which “% damage, Sinapis” value (Sinapis) is on record?
**A.** 100%

**Q.** And the “% damage, Maize” value (Maize)?
**A.** 0%

**Q.** And the “% damage, Amaranthus” value (Amaranthus [3]; 1000 g of ai./ha)?
**A.** 100%

**Q.** What about the “% damage, Abutilon” value (Abutilon) of the same compound?
**A.** 100%

**Q.** Which results are given for `CC(Nc1nc(N)nc(C(C)(C)F)n1)c1ccc(Cl)cc1` (centres unmarked) [drawing 95]?
**A.** % damage, Sinapis (Sinapis): 100%; % damage, Maize (Maize): 0%; % damage, Amaranthus (Amaranthus [3]; 1000 g of ai./ha): 90%; % damage, Abutilon (Abutilon): 80%

**Q.** For `CC(=O)Nc1nc(NC(C)c2ccc(Cl)cc2)nc(C(F)C(F)(F)F)n1` (centres unmarked) [drawing 97], which “% damage, Digitaria” value (Digitaria; 500 g of ai./ha) is on record?
**A.** 80%

**Q.** And the “% damage, Cotton” value (Cotton; 500 g of ai./ha)?
**A.** 0%

**Q.** And the “% damage, Wheat” value (Wheat; 500 g of ai./ha)?
**A.** 0%

**Q.** What about the “% damage, Polygonum” value (Polygonum; 500 g of ai./ha) of the same compound?
**A.** 100%

**Q.** And the “% damage, Veronica” value (Veronica; 500 g of ai./ha)?
**A.** 100%

**Q.** What about the “% damage, Amaranthus” value (Amaranthus [3]; 500 g of ai./ha) of the same compound?
**A.** 100%

**Q.** And the “% damage, Echinochloa” value (Echinochloa; 500 g of ai./ha)?
**A.** 95%

**Q.** For `CC(Nc1nc(N)nc(C(Cl)Cl)n1)c1ccc(Cl)cc1` (centres unmarked) [drawing 98], which “% damage, Solanum” value (Solanum; 500 g of ai./ha) is on record?
**A.** 100%

**Q.** And the “% damage, Digitaria” value (Digitaria; 500 g of ai./ha)?
**A.** 95%

**Q.** And the “% damage, Cotton” value (Cotton; 500 g of ai./ha)?
**A.** 0%

**Q.** And the “% damage, Wheat” value (Wheat; 500 g of ai./ha)?
**A.** 0%

**Q.** And the “% damage, Polygonum” value (Polygonum; 500 g of ai./ha)?
**A.** 100%

**Q.** And the “% damage, Veronica” value (Veronica; 500 g of ai./ha)?
**A.** 100%

**Q.** And the “% damage, Echinochloa” value (Echinochloa; 500 g of ai./ha)?
**A.** 100%

**Q.** For `CC(Nc1nc(N)nc(C(C)(Cl)Cl)n1)c1ccc(Cl)cc1` (centres unmarked) [drawing 99], which “% damage, Solanum” value (Solanum; 1000 g of ai./ha) is on record?
**A.** 100%

**Q.** And the “% damage, Digitaria” value (Digitaria; 1000 g of ai./ha)?
**A.** 100%

**Q.** What about the “% damage, Cotton” value (Cotton; 1000 g of ai./ha) of the same compound?
**A.** 0%

**Q.** What about the “% damage, Wheat” value (Wheat; 1000 g of ai./ha) of the same compound?
**A.** 0%

**Q.** And the “% damage, Veronica” value (Veronica; 1000 g of ai./ha)?
**A.** 100%

**Q.** What about the “% damage, Amaranthus” value (Amaranthus [3]; 1000 g of ai./ha) of the same compound?
**A.** 100%

**Q.** What about the “% damage, Echinochloa” value (Echinochloa; 1000 g of ai./ha) of the same compound?
**A.** 95%

**Q.** For `CC(Cl)c1nc(N)nc(NC(C)c2ccc(Cl)cc2)n1` (centres unmarked) [drawing 100], which “% damage, Solanum” value (Solanum; 500 g of ai./ha) is on record?
**A.** 100%

**Q.** And the “% damage, Cotton” value (Cotton; 500 g of ai./ha)?
**A.** 0%

**Q.** And the “% damage, Setaria” value (Setaria [4]; 500 g of ai./ha)?
**A.** 95%

**Q.** What about the “% damage, Wheat” value (Wheat; 500 g of ai./ha) of the same compound?
**A.** 0%

**Q.** And the “% damage, Polygonum” value (Polygonum; 500 g of ai./ha)?
**A.** 100%

**Q.** What about the “% damage, Veronica” value (Veronica; 500 g of ai./ha) of the same compound?
**A.** 100%

**Q.** What about the “% damage, Echinochloa” value (Echinochloa; 500 g of ai./ha) of the same compound?
**A.** 100%

**Q.** For `CC(Nc1nc(N)nc(C(F)C(F)(F)F)n1)c1ccc(Cl)cc1` (centres unmarked) [drawing 101], which “% damage, Solanum” value (Solanum; 1000 g of ai./ha) is on record?
**A.** 100%

**Q.** What about the “% damage, Digitaria” value (Digitaria; 1000 g of ai./ha) of the same compound?
**A.** 100%

**Q.** What about the “% damage, Setaria” value (Setaria [4]; 1000 g of ai./ha) of the same compound?
**A.** 100%

**Q.** What about the “% damage, Wheat” value (Wheat; 1000 g of ai./ha) of the same compound?
**A.** 0%

**Q.** What about the “% damage, Polygonum” value (Polygonum; 1000 g of ai./ha) of the same compound?
**A.** 100%

**Q.** What about the “% damage, Veronica” value (Veronica; 1000 g of ai./ha) of the same compound?
**A.** 100%

**Q.** What about the “% damage, Amaranthus” value (Amaranthus [3]; 1000 g of ai./ha) of the same compound?
**A.** 100%

**Q.** What about the “% damage, Echinochloa” value (Echinochloa; 1000 g of ai./ha) of the same compound?
**A.** 100%

**Q.** With `CC(=O)Nc1nc(NC(C)c2ccc(Cl)cc2)nc(C(F)C(F)(F)F)n1` (centres unmarked) [drawing 102] as the compound, how does the “% damage, Solanum” value (Solanum; 1000 g of ai./ha) read?
**A.** 100%

**Q.** And the “% damage, Digitaria” value (Digitaria; 1000 g of ai./ha)?
**A.** 100%

**Q.** What about the “% damage, Setaria” value (Setaria [4]; 1000 g of ai./ha) of the same compound?
**A.** 100%

**Q.** And the “% damage, Wheat” value (Wheat; 1000 g of ai./ha)?
**A.** 0%

**Q.** And the “% damage, Polygonum” value (Polygonum; 1000 g of ai./ha)?
**A.** 100%

**Q.** And the “% damage, Veronica” value (Veronica; 1000 g of ai./ha)?
**A.** 100%

**Q.** What about the “% damage, Amaranthus” value (Amaranthus [3]; 1000 g of ai./ha) of the same compound?
**A.** 100%

**Q.** And the “% damage, Echinochloa” value (Echinochloa; 1000 g of ai./ha)?
**A.** 100%

**Q.** Which “% damage, Solanum” value (Solanum; 1000 g of ai./ha) does the source give for `CC(=O)Nc1nc(NC(C)c2ccc(Cl)cc2)nc(C(C)(Cl)Cl)n1` (centres unmarked) [drawing 103] here?
**A.** 100%

**Q.** And the “% damage, Digitaria” value (Digitaria; 1000 g of ai./ha)?
**A.** 100%

**Q.** What about the “% damage, Setaria” value (Setaria [4]; 1000 g of ai./ha) of the same compound?
**A.** 95%

**Q.** What about the “% damage, Wheat” value (Wheat; 1000 g of ai./ha) of the same compound?
**A.** 0%

**Q.** And the “% damage, Polygonum” value (Polygonum; 1000 g of ai./ha)?
**A.** 100%

**Q.** What about the “% damage, Veronica” value (Veronica; 1000 g of ai./ha) of the same compound?
**A.** 100%

**Q.** And the “% damage, Amaranthus” value (Amaranthus [3]; 1000 g of ai./ha)?
**A.** 100%

**Q.** And the “% damage, Echinochloa” value (Echinochloa; 1000 g of ai./ha)?
**A.** 100%
